From US8268836B2, “Compound useful as a c-Met inhibitor” (Eli Lilly and Company, priority 2010, dated 2012)
Converted amounts (≈) assume the structure as drawn. Read-outs that look alike come from different tables or passages of the source.

Assays:
[1] = biological target: T1, Met (pY1349) in NCl-H460 cells (Homo sapiens, UniProt P08581); assay: HGF stimulated Met (pY1349) NCI-H460 cell-based ELISA; details: HGF 100 ng/mL stimulated NCI-H460 cells; read-out: relative IC50, H460 assay (c-Met phosphorylation)
T1 construct: host or cells: NCI-H460
Procedure: NCl—H460 cells (purchased from ATCC) are cultured in RPMI 1640 media (Invitrogen) supplemented with 10% Fetal Bovine Serum (FBS) and plated (prior to becoming 70% confluent) in 96-well flat-bottom plates at a density of 20,000 cells per well in 80 μL volume. The cells are then incubated overnight in a cell culture incubator (5% CO2, 95% Relative Humidity (RH) and 37° C.) and allowed to attach to the plate. The following morning the cells are washed with 2 volumes of a Reduced Serum Media (RSM, RPMI 1640 media supplemented with 0.5% FBS). After removal of the last wash, 80 μL of RSM is added to each well of the cell plates. The cell plates are incubated for 2.5 h in a cell culture incubator, and then dosed with compounds. Compound inhibitors are first solubilized at 10 mM in 100% DMSO and then diluted to 100 μM with 2% DMSO RSM. […] After 1 h capture (at RT) the MSD® plate wells are washed with 1× Tris Wash Buffer, and then 150 μL of 1× Read Buffer T (with surfactant, MSD®) is added. Immediately after the addition of the Read Buffer, the plates are analyzed with a SECTOR 6000 MSD® Imager plate reader. Relative IC50 values are determined using MSD activity units by calculating percent inhibition with respect to on-plate “MIN” and “MAX” controls and then fitting the percent inhibition values and ten-point dose response data to a four-parameter logistic equation.

[2] = system: U87MG glioblastoma xenografts; assay: Xenograft tumor model U87MG; assay type: in vivo, mice
Procedure: Human glioblastoma cells U87MG, human gastric cancer cells MKN45, or human pancreatic KP4 cells are cultured and implanted subcutaneously in the rear flank of female CD-1 nu/nu strain mice which have been acclimated for one week in the animal facility after receipt from the vendor. Mice are randomized into groups of 10 mice per group. Testing compound is prepared in an appropriate vehicle and is administered by oral gavage when tumors are established (7-21 days after implant, or when the mean tumor volume reaches ˜100 mm^3). Tumor response is determined by tumor volume measurement performed twice a week during the course of treatment. Fluctuations in body weight are also monitored as a general measurement of toxicity. The compound of example 1 is orally administered twice a day for 28 days.
For statistical analysis, the individual subject tumor volumes are transformed to log volume and are analyzed with a two-way repeated measures analysis of variance by time and treatment using the MIXED procedures in SAS software (version 8.2). The correlation model for the repeated measures is spatial power. Treated groups are compared to the control group at the final time point. The MIXED procedure is also used separately for each treatment group to calculate adjusted means and standard errors at each time point. Both analyses account for the autocorrelation within each subject.

99 kinases = assay: Cerep Express Diversity Kinase Profile screening; assay type: biochemical
Source text: The Express Diversity Kinase Profile™ is a screening service developed by Cerep SA (Paris, France). Details of assay conditions and/or contact information can be found on their website http://www.cerep.fecerep/users/pages/catalog/profiles/catalog.asp).

Dynamic solubility = assay type: physicochemical; details: for solubility at 18 h: thermodynamic from solid
Procedure: The media included simulated gastric fluid (SGF) which comprise of 0.01N HCl, 0.05% sodium lauryl sulfate, and 0.2% NaCl; fasted state simulated intestinal fluid (SIF-fasted) which composed of 29 mM NaH2PO4, 3 mM Na taurocholate, 0.75 mM lecithin, 103 mM NaCl, and NaOH to pH 6.5; fed state simulated intestinal fluid (SIF-fed) which comprise of 144 mM acetic acid, 15 mM Na taurocholate, 3.75 mM lecithin, 204 mM NaCl, and NaOH to pH 5.0; and pH 4.5, 6, 7.5 buffers which are 28-56 mM phosphate buffers. The compound concentrations are determined using Agilent 1200 HPLC (LC5) with a UV detector. Mobile phase uses A (85%) which is water containing 0.1% TFA and B (15%) which is ACN at a flow rate of 1 mL/min and run time of 10 min. Column of Zorbax, Bonus-RP (3.5 μm, 4.6×75 mm; SN: USTM002428) is used in the studies.

T1 sequence (P08581 25-1390): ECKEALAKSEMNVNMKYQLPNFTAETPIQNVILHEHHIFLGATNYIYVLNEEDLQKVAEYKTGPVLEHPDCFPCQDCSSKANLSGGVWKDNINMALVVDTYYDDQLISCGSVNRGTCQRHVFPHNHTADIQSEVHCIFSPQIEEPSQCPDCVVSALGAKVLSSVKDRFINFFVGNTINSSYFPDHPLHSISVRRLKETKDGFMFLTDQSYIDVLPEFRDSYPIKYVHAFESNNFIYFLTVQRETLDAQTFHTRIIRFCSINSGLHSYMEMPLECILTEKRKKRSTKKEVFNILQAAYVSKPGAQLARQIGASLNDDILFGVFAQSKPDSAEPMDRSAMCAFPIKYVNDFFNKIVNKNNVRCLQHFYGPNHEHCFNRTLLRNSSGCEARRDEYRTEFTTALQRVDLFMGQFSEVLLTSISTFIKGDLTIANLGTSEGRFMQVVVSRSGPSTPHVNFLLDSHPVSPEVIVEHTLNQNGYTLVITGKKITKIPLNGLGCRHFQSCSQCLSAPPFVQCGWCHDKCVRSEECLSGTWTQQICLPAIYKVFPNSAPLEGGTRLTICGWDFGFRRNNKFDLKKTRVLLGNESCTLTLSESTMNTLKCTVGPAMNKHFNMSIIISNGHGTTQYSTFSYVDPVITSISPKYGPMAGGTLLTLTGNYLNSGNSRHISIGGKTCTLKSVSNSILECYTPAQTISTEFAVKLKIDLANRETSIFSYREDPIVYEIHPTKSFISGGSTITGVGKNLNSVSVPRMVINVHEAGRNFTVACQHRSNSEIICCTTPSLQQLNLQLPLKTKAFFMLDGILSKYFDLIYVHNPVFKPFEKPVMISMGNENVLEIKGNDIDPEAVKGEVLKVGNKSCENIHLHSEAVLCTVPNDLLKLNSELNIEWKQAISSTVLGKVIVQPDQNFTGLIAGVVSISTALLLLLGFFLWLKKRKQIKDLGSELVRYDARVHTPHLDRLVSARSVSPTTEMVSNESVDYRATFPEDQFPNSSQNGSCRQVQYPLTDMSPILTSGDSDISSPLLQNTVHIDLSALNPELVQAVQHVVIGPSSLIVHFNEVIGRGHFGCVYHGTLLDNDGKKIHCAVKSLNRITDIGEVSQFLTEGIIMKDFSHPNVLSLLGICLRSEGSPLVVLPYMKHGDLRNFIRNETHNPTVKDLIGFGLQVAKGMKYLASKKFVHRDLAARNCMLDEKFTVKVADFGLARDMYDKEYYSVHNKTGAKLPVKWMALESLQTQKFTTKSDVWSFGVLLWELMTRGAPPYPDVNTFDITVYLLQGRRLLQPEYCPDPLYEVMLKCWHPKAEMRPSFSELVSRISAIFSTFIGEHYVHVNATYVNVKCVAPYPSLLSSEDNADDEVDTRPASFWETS

For `Cn1cc(-c2ccc3nnc(Sc4ccc5nn(C)cc5c4)n3n2)cn1` [Example 1, 6-(1-Methyl-1H-pyrazol-4-yl)-3-(2-methyl-2H-indazol-5-ylthio)-[1,2,4]triazolo[4,3-b]pyridazine], the IC50 [1] was 36 nM, the “Mean Tumor Volume ± Standard Error” value ([2]; 2 mg/kg oral twice a day for 28 days) was 271 ± 61 mm^3 and the “Mean Tumor Volume ± Standard Error” value ([2]; 4 mg/kg oral twice a day for 28 days) was 137 ± 29 mm^3. For the same molecule, the “Mean Tumor Volume ± Standard Error” value ([2]; 8 mg/kg oral twice a day for 28 days) was 108 ± 16 mm^3, the “Mean Tumor Volume ± Standard Error” value ([2]; 16 mg/kg oral twice a day for 28 days) was 116 ± 19 mm^3 and the “Mean Tumor Volume ± Standard Error” value ([2]; 32 mg/kg oral twice a day for 28 days) was 46 ± 4 mm^3. The “Kinases inhibited in Cerep screening of 99 kinases” value (99 kinases) was “inhibited only c-Met”, the solubility at 18 h (Dynamic solubility; 0.01N HCl, simulated gastric fluid, read-out: Dynamic solubility, 0.01N HCl) was 11 µg/mL (≈ 30.4 µM) and the solubility at 18 h (Dynamic solubility; 0.1N HCl, simulated gastric fluid, read-out: Dynamic solubility, 0.1N HCl) was 33 µg/mL (≈ 91.1 µM). The “fold more soluble than the reference compound, SIF fasted” value (Dynamic solubility; SIF fasted state) was “approximately 13 fold”, the “fold more soluble than the reference compound, SIF fed” value (Dynamic solubility; SIF fed state) was roughly 14 fold and the solubility at 18 h (Dynamic solubility; aqueous buffer, pH ≧ 4 phosphate buffer, read-out: Dynamic solubility, pH ≧ 4 buffer) was roughly 10 µg/mL (≈ 27.6 µM). It also gave a solubility at 18 h (Dynamic solubility; fassif, fasted state simulated intestinal fluid pH 6.5, 18 h ambient, read-out: Dynamic solubility, SIF Fasted) of 13 µg/mL (≈ 35.9 µM), a solubility at 18 h (Dynamic solubility; fessif, fed state simulated intestinal fluid pH 5.0, 18 h ambient, read-out: Dynamic solubility, SIF Fed) of 70 µg/mL (≈ 193 µM) and a solubility at 18 h (Dynamic solubility; simulated gastric fluid, 18 h ambient, read-out: Dynamic solubility, SGF) of 52 µg/mL (≈ 143 µM). For the same molecule, the solubility at 18 h (Dynamic solubility; water, read-out: Dynamic solubility, Water) was 9 µg/mL (≈ 24.8 µM).
